Patent publication US20230357312A1, “Borylated Di-Peptide Amino Acid compositions for use in Boron Neutron Capture Therapy and methods thereof” (TAE Life Sciences, priority 2021, published 2023)
Converted amounts (≈) assume the structure as drawn. Blank lines part the entries; values can stand above or below the compound they belong to.

Tests used:
FaDu cells [1] = assay: Dipeptide degradation to BPA by HPLC; format: in vitro ADME, human; details: for relative conversion into BPA in the presence of cells: 2.5 mM in HBSS, 4 hrs at 37° C., FaDu cells, RP-HPLC/MS semi-quantitative
Procedure: In this experiment, to investigate whether dipeptides are converted to BPA, which is then taken up through its cognate transporter, evaluation of whether dipeptides remained intact in the tissue culture media in the presence of absence of cancer cells was made using the following protocols. Briefly, FaDu cells were harvested and counted. The cell number was adjusted to 50×10^5 / mL in the HBSS tissue culture medium using 1 mL per well. The cells were incubated at 37° C. in the 5% CO2 overnight. At the end, the supernatants were aspirated, and cells were rinsed with 1 mL PBS once. Each test article was prepared at 2.5 mM concentration in HBSS medium, and 0.4 mL was added to cells. After 4 hrs. at 37° C. the supernatants were harvested and analyzed by RP HPLC using an ACQUITY BEH C18 column 2.1 × […] (Waters) equipped with a matching guard column equilibrated with 2% aqueous acetonitrile/0.1% formic acid mobile phase. The dipeptides were separated in the gradient of 90% acetonitrile/10% water/0.1% formic acid to 20% in 6 min and identified by UV225 nm. The masses were confirmed by an online QDA mass spectrometer. Breakdown of the original dipeptide was quantitated by comparing with the control - the same dipeptide incubated in the same fashion in the absence of cells. Stabilities of BPA-BPA, Ala-BPA, and BPA-Ala were compared, and the formation of BPA was measured semi-quantitatively by RP-HPLC/MS.

FaDu cells [2] = assay: Borylated dipeptide uptake in cancer cell lines (boron by ICP-OES); format: cell-based, human; details: 2.5 mM in HBSS, 37° C., 2 hrs; FaDu: high LAT1, PEPT1 negative
Procedure: (§1) The indicated cancer cell line (A) or FaDu cells (B) were harvested from culture and washed twice with PBS. Cell lines were adjusted to 2 million cells/ml in Hanks Balanced Salt Solution (HBSS). BPA or dipeptide boron compounds were added to cells at the final concentration of 2.5 mM in HBSS and the treated cells were incubated at 37° C. 5% CO2 for 2 hrs with shaking. The cells were collected by centrifugation; washed with cold PBS twice and reconstituted in 1 ml of cold PBS. Then, 50 µl of cell suspension was removed, pelleted, and lysed using RIPA buffer and the protein concentration was determined using BCA assay. The remaining 950 µl was used for boron compounds uptake measurements using ICP-OES.
(§2) To this end, 0.5 mL of concentrated nitric acid was added to each cell pellet in a 15 mL conical tube. The tubes were capped and placed in an oven set at 80° C. for 3 hours. 2 mL of water was added’ to each sample to bring the final volume up to 2.5 mL. The boron content in each sample was then measured on an Agilent 5110 ICP-OES using an Agilent SPS4 Autosampler for sample introduction.
The data was analyzed using Agilent’s ICP Expert Software, version 7.4.2.10790. Boron was measured axially at the 249.772 nm wavelength and the internal standard Beryllium was measured axially at the 313.042 nm wavelength. Beryllium was tee-ed into the solution at 1:5 the flowrate before introduction to the spray chamber. A standard curve using 1000, 100, 10, 1 and 0 ppb of boron was used to calculate the concentration of boron in each sample. Once determined, the boron measurement for each sample was normalized to protein content and final boron uptake results were expressed as ng boron/mg protein.
In another experiment, uptake of BPA and dipeptide His-BPA was carried out in FaDu, and ASPC-1 as described in FIG. 15. […] Accordingly, the data supports the finding that borylated dipeptides may be taken up efficiently in PEPT1 or other dipeptide transporter expressing cancers. See, FIG. 16(C).
In this experiment, the uptake of several dipeptide and dipeptide analogs was carried out in FaDu and ASPC-1 cells. Normalized boron uptake was determined as in FIG. 15. […] However, several dipeptides are still taken up in PEPT1 negative FaDu cells, although to a lower extent, which further confirms the proposition that an uptake mechanism does exist in FaDu cells for these dipeptides that is not PEPT1. See, FIG. 19.

[3] = cited from earlier work
AsPC-1 cells = assay: Uptake inhibition by PEPT1 competitive inhibitor Gly-SAR; format: cell-based, human; details: 0.8 mM test compound, with and without Gly-SAR
Procedure: (§3) In this experiment, uptake of BPA and dipeptide His-BPA (0.8 mM of each) was carried out in FaDu and ASPC-1 in the presence and absence of the indicated concentrations of PEPT1 dipeptide transporter competitive inhibitor Gly-SAR. Normalized boron uptake was determined as in FIG. 15.

FaDu cells [4] = assay: as above; format: cell-based, human; details: 0.8 mM test compound, with and without Gly-SAR
Procedure: as §3

CT26 xenografts [5] = assay: BNCT study, 12 or 6 minute irradiation at 5 MW; format: in vivo, BALB/c mice; details: monitored to 22 days
Procedure: Following one (1) hour of treatment time, mice were irradiated for either 12 minutes (33(A)) or 6 minutes (33(B)) at the Kyoto University Research Reactor (Kyoto, Japan) 1 set at 5 megawatts. Data are the means ± SD of 3 mice per treatment group. Tumors were measured for growth out to 22 days.

CT26 xenografts [6] = assay: BNCT tumor regression study, 6 minute irradiation; format: in vivo, BALB/c mice; details: 6 minutes irradiation
Procedure: In this experiment, CT26 xenografts in BALB/c mice were dosed with 400 mg/kg of BPA or 900 mg/kg of His-BPA or BPA-BPA. Following one (1) hour treatment time, mice were irradiated for 6 minutes at the Kyoto University Research Reactor (Kyoto, Japan) 1 set at 5 megawatts. Data are the means ± SD of 3 mice per treatment group. Tumors were measured for growth out to 36 days and examined for tumor presence at 40 days. BPA and control groups were sacrificed at day 18 due to excessive tumor growth.

[7] = Pharmacokinetics (blood boron by ICP OES); format: in vivo, Balb/C non-tumor bearing male mice; details: tail vein injection
Procedure: In this experiment, pharmacokinetics of BPA-BPA was evaluated using the following protocols. Briefly, […] of each compound was injected in the tail vein of Balb/C non-tumor bearing male mice (5 mice per group). Blood was drawn at the following time points: 2, 5, 16, 30, 60, 120 and 240 minutes into EDTA-coated tubes. Boron concentration was measured using ICP OES following the digestion in concentrated nitric acid for 1 hour. The boron concentration was normalized to 1 mL of blood and plotted using GraphPad Prizm. The PK parameters (see, FIG. 22, Table) were obtain using PK Solver ver. 2.0 using compartmental analysis BPA-fructose was used as a reference substance.

[8] = system: FaDu, Detroit-562, MeWo, HCC-1954, A549 and AsPC-1 human cancer xenograft models; assay: Dose escalation of boron delivery, all tested xenograft models; format: in vivo, CB17 SCID mice; details: 1000 mg/kg, 120 minutes
Procedure: Tumors were harvested 120 minutes following treatment and boron content determined by ICP-OES. Data are the means ± SD of 5 mice per treatment group.

Solubility = format: physicochemical
A431 = assay: Borylated dipeptide uptake in cancer cell lines (boron by ICP-OES); format: cell-based; details: 2.5 mM in HBSS, 37° C., 2 hrs
Procedure: as §1
as §2, with “2 mL of water was added’ to each sample to bring the final volume up to 2.5 mL.” left out
(§4) The data was analyzed using Agilent’s ICP Expert Software, version 7.4.2.10790. Boron was measured axially at the 249.772 nm wavelength and the internal standard Beryllium was measured axially at the 313.042 nm wavelength. […] Once determined, the boron measurement for each sample was normalized to protein content and final boron uptake results were expressed as ng boron/mg protein.

[9] = Pharmacokinetics of BPA-BPA
Text: Table printed on a drawing sheet, Figure 28, continued. Title: Pharmacokinetics of BPA-BPA The patent's description of the figure: FIG. 28. Pharmacokinetics of BPA-BPA. First reader's note: Continuation of Figure 28; BPA-BPA is a borylated dipeptide, BPA Fructose is the comparator formulation.

T98G = assay: Borylated dipeptide uptake in cancer cell lines (boron by ICP-OES); format: cell-based, human; details: 2.5 mM in HBSS, 37° C., 2 hrs
Procedure: as §1
as §2, with “2 mL of water was added’ to each sample to bring the final volume up to 2.5 mL.” left out
as §4

CT26 = assay: as above; format: cell-based, mouse; details: 2.5 mM in HBSS, 37° C., 2 hrs
Procedure: as §1
as §2, with “2 mL of water was added’ to each sample to bring the final volume up to 2.5 mL.” left out
as §4

intracranial tumor = details: BNCT, Japan, 1968; cited from earlier work

relative conversion into BPA in the presence of cells (FaDu cells [1]): Ala-BPA > BPA-BPA > BPA-Ala
Compound: C[C@H](N)C(=O)N[C@@H](Cc1ccc(B(O)O)cc1)C(=O)O [Ala-BPA, Alanine-BPA]
boron uptake (compared in words) (FaDu cells [2]): to a lower extent than BPA

Compound: N[C@@H](Cc1ccc(B(O)O)cc1)C(=O)O [BPA, 4-Borono-L-phenylalanine, reference compound]
solubility ([3]; L-BPA without fructose): 1700 µg/mL (≈ 8.13 mM) | concentration achieved with fructose formulation ([3]; fructose formulation, quasi-stable solution): 30000 µg/mL | effect of Gly-SAR on boron uptake (AsPC-1 cells): no effect | effect of Gly-SAR on boron uptake (FaDu cells [4]): no effect | tumor growth after BNCT (CT26 xenografts [5]; 200 mg/kg, 6 minutes irradiation at 5 MW): only modest tumor inhibition | tumor growth after BNCT (CT26 xenografts [5]; 200 mg/kg, 12 minutes irradiation at 5 MW): significant and similar growth inhibition, even regression | tumor growth after BNCT (CT26 xenografts [6]; 400 mg/kg, group sacrificed by day 18): continued tumor growth | boron uptake (compared in words) (FaDu cells [2]): to a much greater extent than His-BPA

relative conversion into BPA in the presence of cells (FaDu cells [1]): Ala-BPA > BPA-BPA > BPA-Ala
Compound: CC(NC(=O)[C@@H](N)Cc1ccc(B(O)O)cc1)C(=O)O (stereo partly drawn) [BPA-Ala, BPA-Alanine]
boron uptake (compared in words) (FaDu cells [2]): to a lower extent than BPA

Compound: N[C@@H](Cc1ccc(B(O)O)cc1)C(=O)N[C@@H](Cc1ccc(B(O)O)cc1)C(=O)O [BPA-BPA]
clearance (CL) compared to BPA [7]: remarkably similar | total drug exposure across time (AUC from zero to infinity) compared to BPA [7]: marginally lower | t½ beta (elimination phase) compared to BPA [7]: remarkably similar | pharmacokinetic profile ([7]; blood boron): bi-phasic pharmacokinetics | tumor boron delivery, rank among treatments [8]: greatest boron to all tested xenografts | solubility (in words, compared to BPA) (Solubility): improved solubility | boron uptake compared to BPA (A431): slightly lower than the LAT1 substrate BPA | AUC (0 − t) [9]: 20463.9 µg·min/mL | AUC (0 − ∞) [9]: 29133.2 µg·min/mL | C0 [9]: 522.0 µg/mL | CL, mg/(μg/mL)/min [9]: 0.000113 mg/(μg/mL)/min | CMAX [9]: 362.83 µg/mL | tumor growth after BNCT (CT26 xenografts [5]; 800 mg/kg, 12 minutes irradiation at 5 MW): significant and similar growth inhibition, even regression | boron uptake compared to BPA (T98G): to a similar extent | boron uptake compared to BPA (CT26): to a similar extent | relative conversion into BPA in the presence of cells (FaDu cells [1]): Ala-BPA > BPA-BPA > BPA-Ala | formation of BPA in the absence of cells (FaDu cells [1]; 2.5 mM, 4 hrs, media, no cells): Only trace amount of BPA | tumor growth after BNCT (CT26 xenografts [6]; 900 mg/kg, sustained out to 36 days): significant tumor regression | boron uptake (compared in words) (FaDu cells [2]): slightly lower than the LAT1 substrate BPA

Compound: CC(C)C[C@H](N)C(=O)N[C@@H](Cc1ccc(B(O)O)cc1)C(=O)O [Leu-BPA, Leucine-BPA]
boron uptake (compared in words) (FaDu cells [2]): to a lower extent than BPA

Compound: sodium borocaptate [BSH]
5-year survival rate (intracranial tumor): 58%
